Our source for the Ki and inhibition values is ChEMBL document CHEMBL4627308, “Identification of C10 nitrogen-containing aporphines with dopamine D1 versus D5 receptor selectivity” (Bioorg Med Chem Lett, 2020).

The target of one assay is T1, D(2) dopamine receptor (Homo sapiens, UniProt P14416). The assay is described as follows: Binding affinity to human D2 receptor.
T1 sequence (P14416 whole entry): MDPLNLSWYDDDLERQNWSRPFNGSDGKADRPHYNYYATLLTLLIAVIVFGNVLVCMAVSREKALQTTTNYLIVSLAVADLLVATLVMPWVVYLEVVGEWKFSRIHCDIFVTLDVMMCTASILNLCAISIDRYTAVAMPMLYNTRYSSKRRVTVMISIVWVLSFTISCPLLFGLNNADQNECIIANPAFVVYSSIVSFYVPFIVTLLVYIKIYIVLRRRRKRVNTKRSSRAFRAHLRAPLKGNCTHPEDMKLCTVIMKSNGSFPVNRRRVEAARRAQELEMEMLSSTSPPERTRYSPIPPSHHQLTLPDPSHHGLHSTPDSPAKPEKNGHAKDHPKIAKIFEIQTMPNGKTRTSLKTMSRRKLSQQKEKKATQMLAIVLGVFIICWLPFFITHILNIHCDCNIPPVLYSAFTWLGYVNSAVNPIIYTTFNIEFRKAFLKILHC
Conditions: not given
Broadly, the Ki is the equilibrium dissociation constant of an inhibitor or competing ligand from its target. With `COc1cc2c3c(c1OC)-c1cc(NC(C)=O)ccc1CC3N(C)CC2` (stereo not drawn), the Ki was 978 nM.

As to `C#CCOc1c(OC)cc2c3c1-c1cc([N+](=O)[O-])ccc1CC3N(C)CC2` (stereo not drawn), the inhibition constant (Ki) came to 2050 nM.

Regarding `COc1cc2c3c(c1O)-c1cc([N+](=O)[O-])ccc1CC3N(C)CC2` (stereo not drawn), the affinity corresponds to a Ki of 320 nM.

`C#CCOc1c(OC)cc2c3c1-c1cc(N)ccc1CC3N(C)CC2` (stereo not drawn): the affinity, expressed as Ki, was 431 nM.

The molecule `COc1cc2c3c(c1OC)-c1cc(N)ccc1CC3N(C)CC2` (stereo not drawn) showed a Ki of 260 nM.

Turning to `COc1cc2c3c(c1OC1CC1)-c1cc(N)ccc1CC3N(C)CC2` (stereo not drawn), affinity was put at a Ki of 963 nM.

On to `C=CCOc1c(OC)cc2c3c1-c1cc(N)ccc1CC3N(C)CC2` (stereo not drawn), for which the affinity, expressed as Ki, was 759 nM.

In the next assay the target is D(1B) dopamine receptor (Homo sapiens) (UniProt P21918). The assay is described as follows: Inhibition of human D5 receptor relative to control. Set-up: concentration or dose not given beside the values. Particulars: concentration not given here.
Chain of D(1B) dopamine receptor (Homo sapiens) (P21918 whole entry): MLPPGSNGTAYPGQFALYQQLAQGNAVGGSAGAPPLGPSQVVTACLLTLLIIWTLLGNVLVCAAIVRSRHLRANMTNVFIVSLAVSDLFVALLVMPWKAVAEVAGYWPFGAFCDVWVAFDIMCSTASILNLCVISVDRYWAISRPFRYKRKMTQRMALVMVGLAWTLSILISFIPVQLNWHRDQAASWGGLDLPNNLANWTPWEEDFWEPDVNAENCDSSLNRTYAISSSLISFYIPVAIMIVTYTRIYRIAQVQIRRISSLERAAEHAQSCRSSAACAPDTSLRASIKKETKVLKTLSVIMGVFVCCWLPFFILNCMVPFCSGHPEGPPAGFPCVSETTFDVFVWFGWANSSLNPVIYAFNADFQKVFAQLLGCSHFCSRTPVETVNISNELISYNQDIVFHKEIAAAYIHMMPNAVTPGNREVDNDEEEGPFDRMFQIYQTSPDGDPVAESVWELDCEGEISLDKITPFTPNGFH
Broadly, the inhibition is the relative decrease from the control value, in per cent. `COc1cc2c3c(c1OC)-c1cc(NC(C)=O)ccc1CC3N(C)CC2` (stereo not drawn) yielded an inhibition below 50%.

For `C=CCOc1c(OC)cc2c3c1-c1cc(NC(C)=O)ccc1CC3N(C)CC2` (stereo not drawn), the inhibition is below 50%.

The molecule `C#CCOc1c(OC)cc2c3c1-c1cc([N+](=O)[O-])ccc1CC3N(C)CC2` (stereo not drawn) yielded an inhibition below 50%.

The molecule `CN1CCc2cccc3c2C1Cc1ccc([N+](=O)[O-])cc1-3` (stereo not drawn) displayed an inhibition below 50%.

On to `COc1cc2c3c(c1O)-c1cc([N+](=O)[O-])ccc1CC3N(C)CC2` (stereo not drawn), for which the inhibition is below 50%.

Regarding `C#CCOc1c(OC)cc2c3c1-c1cc(N)ccc1CC3N(C)CC2` (stereo not drawn), the inhibition is below 50%.

`COc1cc2c3c(c1OC)-c1cc(N)ccc1CC3N(C)CC2` (stereo not drawn) gave an inhibition below 50%.

Consider `COc1cc2c3c(c1OC1CC1)-c1cc(N)ccc1CC3N(C)CC2` (stereo not drawn), for which the inhibition was below 50%.

`C=CCOc1c(OC)cc2c3c1-c1cc(N)ccc1CC3N(C)CC2` (stereo not drawn) returned an inhibition below 50%.

Another assay deals with D(1A) dopamine receptor (Homo sapiens, UniProt P21728). The assay is described as follows: Binding affinity to human D1 receptor.
Chain of D(1A) dopamine receptor (P21728 whole entry): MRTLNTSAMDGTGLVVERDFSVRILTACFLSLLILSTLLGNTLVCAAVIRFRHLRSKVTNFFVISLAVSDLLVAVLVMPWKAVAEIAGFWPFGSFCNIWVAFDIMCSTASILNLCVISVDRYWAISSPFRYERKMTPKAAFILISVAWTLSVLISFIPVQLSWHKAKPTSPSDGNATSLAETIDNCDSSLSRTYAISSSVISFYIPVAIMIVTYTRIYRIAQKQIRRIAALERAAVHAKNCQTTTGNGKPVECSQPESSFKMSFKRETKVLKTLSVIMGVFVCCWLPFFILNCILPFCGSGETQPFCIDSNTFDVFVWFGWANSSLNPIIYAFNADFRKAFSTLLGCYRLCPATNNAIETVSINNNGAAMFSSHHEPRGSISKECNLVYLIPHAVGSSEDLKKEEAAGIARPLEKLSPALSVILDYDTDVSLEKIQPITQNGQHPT
Conditions: not given
For the molecule `COc1cc2c3c(c1OC)-c1cc(NC(C)=O)ccc1CC3N(C)CC2` (stereo not drawn), the affinity, expressed as Ki, was 756 nM.

Take `C=CCOc1c(OC)cc2c3c1-c1cc(NC(C)=O)ccc1CC3N(C)CC2` (stereo not drawn): the Ki was 155 nM.

On to `C#CCOc1c(OC)cc2c3c1-c1cc([N+](=O)[O-])ccc1CC3N(C)CC2` (stereo not drawn), for which the affinity corresponds to a Ki of 536 nM.

With `CN1CCc2cccc3c2C1Cc1ccc([N+](=O)[O-])cc1-3` (stereo not drawn), the Ki turned out to be 928 nM.

With `COc1cc2c3c(c1O)-c1cc([N+](=O)[O-])ccc1CC3N(C)CC2` (stereo not drawn), the Ki is 316 nM.

`COc1cc2c3c(c1O)-c1cc(N)ccc1CC3N(C)CC2` (stereo not drawn) registered a Ki of 301 nM.

Molecule `C#CCOc1c(OC)cc2c3c1-c1cc(N)ccc1CC3N(C)CC2` (stereo not drawn) yielded a Ki of 709 nM.

For the molecule `COc1cc2c3c(c1OC)-c1cc(N)ccc1CC3N(C)CC2` (stereo not drawn), affinity was put at a Ki of 691 nM.

For the molecule `COc1cc2c3c(c1OC1CC1)-c1cc(N)ccc1CC3N(C)CC2` (stereo not drawn), the affinity, expressed as Ki, was 1110 nM.

`C=CCOc1c(OC)cc2c3c1-c1cc(N)ccc1CC3N(C)CC2` (stereo not drawn) had a Ki of 830 nM.

The target in a further assay is T2, 5-hydroxytryptamine receptor 2A (Homo sapiens, UniProt P28223). As to the kind of experiment: Inhibition of human 5HT2A receptor relative to control. Also noted: concentration or dose not given beside the values. Particulars: concentration not given here.
T2 sequence (P28223 whole entry): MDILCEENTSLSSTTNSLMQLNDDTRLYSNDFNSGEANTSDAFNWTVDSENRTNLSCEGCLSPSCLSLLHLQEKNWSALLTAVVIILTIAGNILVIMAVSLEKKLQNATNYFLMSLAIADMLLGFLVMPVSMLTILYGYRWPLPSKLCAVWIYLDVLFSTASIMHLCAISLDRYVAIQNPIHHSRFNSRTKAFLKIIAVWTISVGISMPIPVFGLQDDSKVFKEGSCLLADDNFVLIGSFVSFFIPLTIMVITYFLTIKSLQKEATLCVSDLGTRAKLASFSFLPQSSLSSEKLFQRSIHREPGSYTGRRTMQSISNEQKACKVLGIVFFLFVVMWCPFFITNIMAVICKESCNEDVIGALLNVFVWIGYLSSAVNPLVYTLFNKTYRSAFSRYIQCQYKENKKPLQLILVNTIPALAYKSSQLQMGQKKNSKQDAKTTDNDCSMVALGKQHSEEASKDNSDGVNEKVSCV
Regarding `COc1cc2c3c(c1OC)-c1cc(NC(C)=O)ccc1CC3N(C)CC2` (stereo not drawn), the inhibition was below 50%.

`C#CCOc1c(OC)cc2c3c1-c1cc([N+](=O)[O-])ccc1CC3N(C)CC2` (stereo not drawn) had an inhibition below 50%.

`CN1CCc2cccc3c2C1Cc1ccc([N+](=O)[O-])cc1-3` (stereo not drawn) displayed an inhibition below 50%.

Another assay addresses T1, D(2) dopamine receptor. The assay is described as follows: Inhibition of human D2 receptor relative to control. Also noted: concentration or dose not given beside the values. Particulars: concentration not given here.
Regarding `C=CCOc1c(OC)cc2c3c1-c1cc(NC(C)=O)ccc1CC3N(C)CC2` (stereo not drawn), the inhibition is below 50%.

Molecule `CN1CCc2cccc3c2C1Cc1ccc([N+](=O)[O-])cc1-3` (stereo not drawn) came in with an inhibition below 50%.

The target of the next assay is T2, 5-hydroxytryptamine receptor 2A.
Conditions: not given
Consider `C=CCOc1c(OC)cc2c3c1-c1cc(NC(C)=O)ccc1CC3N(C)CC2` (stereo not drawn), for which the Ki worked out at 1220 nM.

With `COc1cc2c3c(c1O)-c1cc([N+](=O)[O-])ccc1CC3N(C)CC2` (stereo not drawn), the affinity corresponds to a Ki of 908 nM.

`COc1cc2c3c(c1O)-c1cc(N)ccc1CC3N(C)CC2` (stereo not drawn) displayed a Ki of 850 nM.

On to `C#CCOc1c(OC)cc2c3c1-c1cc(N)ccc1CC3N(C)CC2` (stereo not drawn), for which the affinity, expressed as Ki, was 378 nM.

The molecule `COc1cc2c3c(c1OC)-c1cc(N)ccc1CC3N(C)CC2` (stereo not drawn) gave a Ki of 585 nM.

As for `COc1cc2c3c(c1OC1CC1)-c1cc(N)ccc1CC3N(C)CC2` (stereo not drawn), affinity was put at a Ki of 110 nM.

As to `C=CCOc1c(OC)cc2c3c1-c1cc(N)ccc1CC3N(C)CC2` (stereo not drawn), the Ki was found to be 234 nM.

For another assay, the target named is T3, 5-hydroxytryptamine receptor 1A (Homo sapiens) (UniProt P08908).
T3 sequence (whole entry): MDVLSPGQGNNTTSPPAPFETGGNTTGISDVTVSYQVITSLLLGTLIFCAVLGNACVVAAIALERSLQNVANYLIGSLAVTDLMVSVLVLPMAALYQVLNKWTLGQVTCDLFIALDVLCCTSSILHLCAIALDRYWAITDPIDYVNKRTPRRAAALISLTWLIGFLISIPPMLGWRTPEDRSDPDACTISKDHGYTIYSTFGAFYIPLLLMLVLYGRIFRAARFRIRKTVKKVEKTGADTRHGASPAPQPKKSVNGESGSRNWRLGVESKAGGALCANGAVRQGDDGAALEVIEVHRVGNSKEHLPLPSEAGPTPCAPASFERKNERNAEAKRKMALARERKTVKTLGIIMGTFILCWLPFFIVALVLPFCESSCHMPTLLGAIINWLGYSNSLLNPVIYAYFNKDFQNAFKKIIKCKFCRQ
As to the kind of experiment: Inhibition of human 5HT1A receptor relative to control. To be noted: concentration not given here. Set-up: concentration or dose not given beside the values.
Turning to `COc1cc2c3c(c1OC)-c1cc(NC(C)=O)ccc1CC3N(C)CC2` (stereo not drawn), the inhibition is below 50%.

As to `C=CCOc1c(OC)cc2c3c1-c1cc(NC(C)=O)ccc1CC3N(C)CC2` (stereo not drawn), the inhibition is below 50%.

In turn, `COc1cc2c3c(c1O)-c1cc(N)ccc1CC3N(C)CC2` (stereo not drawn) had an inhibition below 50%.

`COc1cc2c3c(c1OC1CC1)-c1cc(N)ccc1CC3N(C)CC2` (stereo not drawn) came in with an inhibition below 50%.

The molecule `C=CCOc1c(OC)cc2c3c1-c1cc(N)ccc1CC3N(C)CC2` (stereo not drawn) returned an inhibition below 50%.

In another assay the target is T4, 5-hydroxytryptamine receptor 1A (Homo sapiens, UniProt P08908).
T4 sequence (P08908 whole entry): T3 sequence (whole entry)
As to the kind of experiment: Binding affinity to human 5HT1A receptor.
Conditions: not given
For `C#CCOc1c(OC)cc2c3c1-c1cc([N+](=O)[O-])ccc1CC3N(C)CC2` (stereo not drawn), the affinity, expressed as Ki, was 206 nM.

Take `CN1CCc2cccc3c2C1Cc1ccc([N+](=O)[O-])cc1-3` (stereo not drawn): the affinity, expressed as Ki, was 100 nM.

In the case of `COc1cc2c3c(c1O)-c1cc([N+](=O)[O-])ccc1CC3N(C)CC2` (stereo not drawn), the Ki was 548 nM.

Regarding `C#CCOc1c(OC)cc2c3c1-c1cc(N)ccc1CC3N(C)CC2` (stereo not drawn), the Ki turned out to be 428 nM.

`COc1cc2c3c(c1OC)-c1cc(N)ccc1CC3N(C)CC2` (stereo not drawn) came in with a Ki of 156 nM.
